Laboratory results published in PubChem BioAssay AID1963444 (Molecular Pharmacology Branch, DTP, NCI, 2024).

Tested on: HSSY-II complex spheroid growth, percent test/control
Test: Anticancer human tumor HSSY-II cell line growth inhibition [Asc];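 note: spheroids exposed to drug for 7 days before reading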
Conditions: for IC50: curve of first compound; for viability, T/C: stronger effect = lower value
Summary of the method: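 Spheroid model: tumor line + HUVEC + hMSC. Single agents and combinations; top conc. at/near clinical Cmax (10 microM if undetermined), half-log dilutions. DMSO stocks at 800-fold test concentration.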

[1] = second compound 0.01 µM, first compound 0.00316 µM
[2] = second compound 0.01 µM, first compound 0.01 µM
[3] = second compound 0.01 µM, first compound 0.0316 µM
[4] = second compound 0.01 µM, first compound 0.1 µM
[5] = second compound 0.01 µM, first compound 0.316 µM
[6] = second compound 0.01 µM, first compound 1 µM
[7] = second compound 0.0316 µM, first compound 0.00316 µM
[8] = second compound 0.0316 µM, first compound 0.01 µM
[9] = second compound 0.0316 µM, first compound 0.0316 µM
[10] = second compound 0.0316 µM, first compound 0.1 µM
[11] = second compound 0.0316 µM, first compound 0.316 µM
[12] = second compound 0.0316 µM, first compound 1 µM
[13] = second compound 0.1 µM, first compound 0.00316 µM
[14] = second compound 0.1 µM, first compound 0.01 µM
[15] = second compound 0.1 µM, first compound 0.0316 µM
[16] = second compound 0.1 µM, first compound 0.1 µM
[17] = second compound 0.1 µM, first compound 0.316 µM
[18] = second compound 0.1 µM, first compound 1 µM
[19] = second compound 0.316 µM, first compound 0.00316 µM
[20] = second compound 0.316 µM, first compound 0.01 µM
[21] = second compound 0.316 µM, first compound 0.0316 µM
[22] = second compound 0.316 µM, first compound 0.1 µM
[23] = second compound 0.316 µM, first compound 0.316 µM
[24] = second compound 0.316 µM, first compound 1 µM
[25] = second compound 1 µM, first compound 0.00316 µM
[26] = second compound 1 µM, first compound 0.01 µM
[27] = second compound 1 µM, first compound 0.0316 µM
[28] = second compound 1 µM, first compound 0.1 µM
[29] = second compound 1 µM, first compound 0.316 µM
[30] = second compound 1 µM, first compound 1 µM

CCN1CCN(Cc2ccc(Nc3ncc(F)c(-c4cc(F)c5nc(C)n(C(C)C)c5c4)n3)nc2)CC1 + CNC(C)C(=O)NC1CN(S(=O)(=O)c2cccc(S(=O)(=O)N3CCC4CCC(C(=O)NC(c5ccccc5)c5ccccc5)N4C(=O)C(NC(=O)C(C)NC)C3)c2)CCC2CCC(C(=O)NC(c3ccccc3)c3ccccc3)N2C1=O
IC50 (second compound 0.01 µM): 120 nM
IC50 (second compound 0.0316 µM): 150 nM
IC50 (second compound 0.1 µM): 111 nM
IC50 (second compound 0.316 µM): 87.5 nM
IC50 (second compound 1 µM): 96 nM
viability, T/C [1]: 95.3%
viability, T/C [2]: 92.5%
viability, T/C [3]: 60.6%
viability, T/C [4]: 54.2%
viability, T/C [5]: 39.9%
viability, T/C [6]: 23.2%
viability, T/C [7]: 78.1%
viability, T/C [8]: 83.9%
viability, T/C [9]: 66.7%
viability, T/C [10]: 53.2%
viability, T/C [11]: 42.3%
viability, T/C [12]: 23.4%
viability, T/C [13]: 68.5%
viability, T/C [14]: 78.3%
viability, T/C [15]: 59.1%
viability, T/C [16]: 51.5%
viability, T/C [17]: 37.4%
viability, T/C [18]: 24.1%
viability, T/C [19]: 86.5%
viability, T/C [20]: 89%
viability, T/C [21]: 68.9%
viability, T/C [22]: 45.2%
viability, T/C [23]: 37.6%
viability, T/C [24]: 23.9%
viability, T/C [25]: 88%
viability, T/C [26]: 76.8%
viability, T/C [27]: 66.9%
viability, T/C [28]: 46.7%
viability, T/C [29]: 35.4%
viability, T/C [30]: 18.8%

NC(=O)C(=Cn1cnc(-c2cc(C(F)(F)F)cc(C(F)(F)F)c2)n1)c1cncnc1 + CNC(C)C(=O)NC1CN(S(=O)(=O)c2cccc(S(=O)(=O)N3CCC4CCC(C(=O)NC(c5ccccc5)c5ccccc5)N4C(=O)C(NC(=O)C(C)NC)C3)c2)CCC2CCC(C(=O)NC(c3ccccc3)c3ccccc3)N2C1=O
IC50 (second compound 0.01 µM): 10.6 nM
IC50 (second compound 0.0316 µM): 14.3 nM
IC50 (second compound 0.1 µM): 12.9 nM
IC50 (second compound 0.316 µM): 11.1 nM
IC50 (second compound 1 µM): 12.7 nM
viability, T/C (second compound 0.01 µM, first compound 0.000949 µM): 93.6%
viability, T/C (second compound 0.01 µM, first compound 0.003 µM): 78.1%
viability, T/C (second compound 0.01 µM, first compound 0.00949 µM): 53.5%
viability, T/C (second compound 0.01 µM, first compound 0.03 µM): 23.7%
viability, T/C (second compound 0.01 µM, first compound 0.0949 µM): 11.5%
viability, T/C (second compound 0.01 µM, first compound 0.3 µM): 0.44%
viability, T/C (second compound 0.0316 µM, first compound 0.000949 µM): 77.6%
viability, T/C (second compound 0.0316 µM, first compound 0.003 µM): 79.4%
viability, T/C (second compound 0.0316 µM, first compound 0.00949 µM): 57.8%
viability, T/C (second compound 0.0316 µM, first compound 0.03 µM): 32.5%
viability, T/C (second compound 0.0316 µM, first compound 0.0949 µM): 9.75%
viability, T/C (second compound 0.0316 µM, first compound 0.3 µM): 0.64%
viability, T/C (second compound 0.1 µM, first compound 0.000949 µM): 76.4%
viability, T/C (second compound 0.1 µM, first compound 0.003 µM): 68.2%
viability, T/C (second compound 0.1 µM, first compound 0.00949 µM): 58.9%
viability, T/C (second compound 0.1 µM, first compound 0.03 µM): 28.8%
viability, T/C (second compound 0.1 µM, first compound 0.0949 µM): 7.63%
viability, T/C (second compound 0.1 µM, first compound 0.3 µM): 0.48%
viability, T/C (second compound 0.316 µM, first compound 0.000949 µM): 91.1%
viability, T/C (second compound 0.316 µM, first compound 0.003 µM): 73.5%
viability, T/C (second compound 0.316 µM, first compound 0.00949 µM): 55.1%
viability, T/C (second compound 0.316 µM, first compound 0.03 µM): 29.3%
viability, T/C (second compound 0.316 µM, first compound 0.0949 µM): 6.77%
viability, T/C (second compound 0.316 µM, first compound 0.3 µM): 0.44%
viability, T/C (second compound 1 µM, first compound 0.000949 µM): 88.1%
viability, T/C (second compound 1 µM, first compound 0.003 µM): 79.8%
viability, T/C (second compound 1 µM, first compound 0.00949 µM): 56.3%
viability, T/C (second compound 1 µM, first compound 0.03 µM): 29.9%
viability, T/C (second compound 1 µM, first compound 0.0949 µM): 5.98%
viability, T/C (second compound 1 µM, first compound 0.3 µM): 0.56%

O=C(c1ccc(F)c(F)c1Nc1ccc(I)cc1F)N1CC(O)([C@@H]2CCCCN2)C1 + CNC(C)C(=O)NC1CN(S(=O)(=O)c2cccc(S(=O)(=O)N3CCC4CCC(C(=O)NC(c5ccccc5)c5ccccc5)N4C(=O)C(NC(=O)C(C)NC)C3)c2)CCC2CCC(C(=O)NC(c3ccccc3)c3ccccc3)N2C1=O
IC50 (second compound 0.01 µM): 587 nM
IC50 (second compound 0.0316 µM): 516 nM
IC50 (second compound 0.1 µM): 472 nM
IC50 (second compound 0.316 µM): 416 nM
IC50 (second compound 1 µM): 515 nM
viability, T/C [1]: 76.6%
viability, T/C [2]: 87.8%
viability, T/C [3]: 112%
viability, T/C [4]: 108%
viability, T/C [5]: 82.2%
viability, T/C [6]: 22.4%
viability, T/C [7]: 95.7%
viability, T/C [8]: 99.8%
viability, T/C [9]: 99.2%
viability, T/C [10]: 107%
viability, T/C [11]: 69%
viability, T/C [12]: 24.4%
viability, T/C [13]: 93%
viability, T/C [14]: 74.1%
viability, T/C [15]: 98.9%
viability, T/C [16]: 99.8%
viability, T/C [17]: 65.8%
viability, T/C [18]: 20.6%
viability, T/C [19]: 98.9%
viability, T/C [20]: 100%
viability, T/C [21]: 83.1%
viability, T/C [22]: 111%
viability, T/C [23]: 59.2%
viability, T/C [24]: 20.4%
viability, T/C [25]: 98.3%
viability, T/C [26]: 114%
viability, T/C [27]: 99.7%
viability, T/C [28]: 95.1%
viability, T/C [29]: 70.7%
viability, T/C [30]: 21.9%
